Source: US10597388B2, “Pyridazinone herbicides” (FMC CORPORATION, priority 2014, dated 2020)

Columns and labels:
Assay in all cases: Test C greenhouse herbicide test, pre- and postemergence
Format in all cases: in vivo
[1] = tested on: wheat (winter wheat, Triticum aestivum)
Summary of the method: (§1)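 Seeds sown in loam–sand blend treated preemergence; plants in peat-based medium sprayed postemergence at 2–18 cm (1- to 4-leaf stage); chemicals in non-phytotoxic solvent with surfactant. Greenhouse 13–15 d, then visual rating versus controls on 0–100 scale (0 no effect, 100 complete control).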

[2] = tested on: crabgrass, large (large crabgrass, Digitaria sanguinalis)
Summary of the method: as §1

[3] = tested on: nutsedge, yellow (yellow nutsedge, Cyperus esculentus)
Summary of the method: as §1

[4] = tested on: johnsongrass (Sorghum halepense)
Summary of the method: as §1

[5] = tested on: ryegrass, Italian (Italian ryegrass, Lolium multiflorum)
Summary of the method: as §1

soybean (Glycine max) = tested on: soybean (Glycine max)
Summary of the method: as §1

[6] = tested on: velvetleaf (Abutilon theophrasti)
Summary of the method: as §1

[7] = tested on: blackgrass (Alopecurus myosuroides)
Summary of the method: as §1

[8] = tested on: foxtail, giant (giant foxtail, Setaria faberii)
Summary of the method: as §1

[9] = tested on: barnyardgrass (Echinochloa crus-galli)
Summary of the method: as §1

[10] = tested on: galium (catchweed bedstraw, Galium aparine)
Summary of the method: as §1

corn (Zea mays) = tested on: corn (Zea mays)
Summary of the method: as §1

[11] = Postemergence, 125 g ai/ha, scale 0 to 100, 0 is no effect, 100 is complete control
[12] = Postemergence, 250 g ai/ha, scale 0 to 100, 0 no effect, 100 complete control, 13 to 15 d
[13] = Preemergence, 31 g ai/ha, scale 0 to 100, 0 is no effect, 100 is complete control
[14] = Preemergence, 62 g ai/ha, scale 0 to 100, 0 is no effect, 100 is complete control
[15] = Preemergence, 125 g ai/ha, scale 0 to 100, 0 is no effect, 100 is complete control
[16] = Preemergence, 250 g ai/ha, scale 0 to 100, 0 no effect, 100 complete control
[17] = postemergence, 62 g ai/ha, scale 0 to 100, 0 no effect, 100 complete control
[18] = Postemergence, 31 g ai/ha, 0 to 100 scale (0 no effect, 100 complete control)

COC(=O)Oc1cnn(C)c(=O)c1-c1c(C)sc2ccccc12 [Compound 97]
85: Plant response rating, Galium [10, 11]
50: Plant response rating, Ryegrass, Italian [5, 11]
90: Plant response rating, Galium [10, 12] | Galium plant response rating [10, 16]
15: Plant response rating, Soybean (soybean (Glycine max); [13]) | Plant response rating, Barnyardgrass [9, 11]
30: Plant response rating, Ryegrass, Italian [5, 15] | Ryegrass, Italian plant response rating [5, 16] | Ryegrass, Italian plant response rating [5, 17] | Plant response rating, Velvetleaf [6, 12] | Velvetleaf plant response rating [6, 16]
60: Crabgrass, Large plant response rating [2, 16]
25: Plant response rating, Crabgrass, Large [2, 12]
20: Soybean plant response rating (soybean (Glycine max); [16]) | Plant response rating, Velvetleaf [6, 15] | Velvetleaf plant response rating [6, 17]
80: Galium plant response rating [10, 17]
10: Plant response rating, Crabgrass, Large [2, 11] | Plant response rating, Soybean (soybean (Glycine max); [14]) | Plant response rating, Soybean (soybean (Glycine max); [15]) | Plant response rating, Velvetleaf [6, 11]
35: Plant response rating, Barnyardgrass [9, 12] | Barnyardgrass plant response rating [9, 16]
55: Plant response rating, Ryegrass, Italian [5, 12] | Foxtail, Giant plant response rating [8, 16]
5: Crabgrass, Large plant response rating [2, 17] | Plant response rating, Nutsedge, Yellow [3, 12] | Plant response rating, Johnsongrass [4, 12] | Plant response rating, Ryegrass, Italian [5, 13] | Plant response rating, Ryegrass, Italian [5, 14] | Plant response rating, Soybean (soybean (Glycine max); [11]) | Plant response rating, Soybean (soybean (Glycine max); [12]) | Blackgrass plant response rating [7, 16] | Plant response rating, Foxtail, Giant [8, 11] | Plant response rating, Foxtail, Giant [8, 12] | Plant response rating, Foxtail, Giant [8, 14] | Plant response rating, Foxtail, Giant [8, 15] | Foxtail, Giant plant response rating [8, 17] | Barnyardgrass plant response rating [9, 17] | Plant response rating, Corn (corn (Zea mays); [12]) | Plant response rating, Corn (corn (Zea mays); [13])
0: Plant response rating, Wheat [1, 11] | Plant response rating, Wheat [1, 12] | Plant response rating, Wheat [1, 13] | Plant response rating, Wheat [1, 14] | Plant response rating, Wheat [1, 15] | Wheat plant response rating [1, 16] | Wheat plant response rating [1, 17] | Plant response rating, Crabgrass, Large [2, 13] | Plant response rating, Crabgrass, Large [2, 14] | Plant response rating, Crabgrass, Large [2, 15] | Plant response rating, Nutsedge, Yellow [3, 11] | Plant response rating, Nutsedge, Yellow [3, 13] | Plant response rating, Nutsedge, Yellow [3, 14] | Plant response rating, Nutsedge, Yellow [3, 15] | Nutsedge, Yellow plant response rating [3, 16] | Nutsedge, Yellow plant response rating [3, 17] | Plant response rating, Johnsongrass [4, 11] | Plant response rating, Johnsongrass [4, 13] | Plant response rating, Johnsongrass [4, 14] | Plant response rating, Johnsongrass [4, 15] | Johnsongrass plant response rating [4, 16] | Johnsongrass plant response rating [4, 17] | Soybean plant response rating (soybean (Glycine max); [17]) | Plant response rating, Velvetleaf [6, 13] | Plant response rating, Velvetleaf [6, 14] | Blackgrass plant response rating [7, 18] | Plant response rating, Blackgrass [7, 11] | Plant response rating, Blackgrass [7, 12] | Plant response rating, Blackgrass [7, 13] | Plant response rating, Blackgrass [7, 14] | Plant response rating, Blackgrass [7, 15] | Blackgrass plant response rating [7, 17] | Plant response rating, Foxtail, Giant [8, 13] | Barnyardgrass plant response rating [9, 18] | Plant response rating, Barnyardgrass [9, 13] | Plant response rating, Barnyardgrass [9, 14] | Plant response rating, Barnyardgrass [9, 15] | Plant response rating, Galium [10, 13] | Plant response rating, Galium [10, 14] | Plant response rating, Galium [10, 15] | Corn plant response rating (corn (Zea mays); [18]) | Plant response rating, Corn (corn (Zea mays); [11]) | Plant response rating, Corn (corn (Zea mays); [14]) | Plant response rating, Corn (corn (Zea mays); [15]) | Corn plant response rating (corn (Zea mays); [16]) | Corn plant response rating (corn (Zea mays); [17])
